From US11051515B2, “3-acyl-benzamides and their use as herbicides” (Bayer Aktiengesellschaft, priority 2017, dated 2021)

Columns and labels:
CYPES [1] = assay: Pre-emergence action against CYPES; format: in vivo, Cyperus esculentus; details: pre-emergence, dosage 320 g/ha, scored visually after 3 weeks vs untreated controls
Procedure, shortened: (§1)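 Seeds sown in sandy loam in wood-fiber pots and covered with soil. Greenhouse growth; visual damage scored after 3 weeks versus untreated controls (100% = dead, 0% = like control).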

ECHCG [2] = assay: Pre-emergence action against ECHCG; format: in vivo, Echinochloa crus-galli; details: pre-emergence, dosage 320 g/ha, scored visually after 3 weeks vs untreated controls
Procedure, shortened: as §1

SETVI [3] = assay: Pre-emergence action against SETVI; format: in vivo, Setaria viridis; details: pre-emergence, dosage 320 g/ha, scored visually after 3 weeks vs untreated controls
Procedure, shortened: as §1

ABUTH [4] = assay: Pre-emergence action against ABUTH; format: in vivo, Abutilon theophrasti; details: pre-emergence, dosage 320 g/ha, scored visually after 3 weeks vs untreated controls
Procedure, shortened: as §1

AMARE [5] = assay: Pre-emergence action against AMARE; format: in vivo, Amaranthus retroflexus; details: pre-emergence, dosage 320 g/ha, scored visually after 3 weeks vs untreated controls
Procedure, shortened: as §1

MATIN [6] = assay: Pre-emergence action against MATIN; format: in vivo, Matricaria inodora; details: Dosage 320 g/ha, pre-emergence
Procedure, shortened: as §1

POLCO [7] = assay: Pre-emergence action against POLCO; format: in vivo, Polygonum convolvulus; details: Dosage 320 g/ha, pre-emergence
Procedure, shortened: as §1

STEME [8] = assay: Pre-emergence action against STEME; format: in vivo, Stellaria media; details: Dosage 320 g/ha, pre-emergence
Procedure, shortened: as §1

VIOTR [9] = assay: Pre-emergence action against VIOTR; format: in vivo, Viola tricolor; details: Dosage 320 g/ha, pre-emergence
Procedure, shortened: as §1

VERPE [10] = assay: Pre-emergence action against VERPE; format: in vivo, Veronica persica; details: Dosage 320 g/ha, pre-emergence
Procedure, shortened: as §1

ALOMY [11] = assay: Post-emergence action against ALOMY; format: in vivo, Alopecurus myosuroides; details: Dosage 80 g/ha, post-emergence
Protocol: (§2) Seeds of monocotyledonous and dicotyledonous weed and crop plants are laid out in sandy loam soil in wood-fiber pots, covered with soil and cultivated in a greenhouse under good growth conditions. 2 to 3 weeks after sowing, the test plants are treated at the one-leaf stage. The compounds of the invention, formulated in the form of wettable powders (WP) or as emulsion concentrates (EC), are then sprayed onto the green parts of the plants in the form of an aqueous suspension or emulsion at a water application rate equating to […], with addition of 0.2% wetting agent. After the test plants have been left to stand in the greenhouse under optimal growth conditions for about 3 weeks, the action of the preparations is assessed visually in comparison to untreated controls (herbicidal action in percent (%): 100% activity=the plants have died, 0% activity=like control plants). […] At the same time, inventive compounds leave Gramineae crops such as barley, wheat, rye, millet/Sorghum, corn or rice virtually undamaged when applied post-emergence, even at high active ingredient dosages. In addition, some substances are also harmless to dicotyledonous crops such as soya, cotton, oilseed rape, sugar beet or potatoes. Some of the compounds according to the invention have high selectivity and are therefore suitable for controlling unwanted vegetation in agricultural crops by the post-emergence method. The data of Tables B18 to B34 below illustrate, in an exemplary manner, the […] herbicidal action of the compounds according to the invention, the herbicidal activity being stated in percent.

ECHCG [12] = assay: Post-emergence action against ECHCG; format: in vivo, Echinochloa crus-galli; details: post-emergence, dosage 80 g/ha, visual assessment about 3 weeks after treatment vs untreated controls
Procedure, shortened: (§3)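 Weeds grown in sandy loam in greenhouse, treated at one-leaf stage (2–3 weeks after sowing) with WP or EC formulations sprayed as aqueous suspension/emulsion at 600 to […] water with 0.2% wetting agent. Visual rating after about 3 weeks versus untreated controls, as % herbicidal action (100% = plants dead, 0% = like control).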

SETVI [13] = assay: Post-emergence action against SETVI; format: in vivo, Setaria viridis; details: post-emergence, dosage 80 g/ha, visual assessment about 3 weeks after treatment vs untreated controls
Procedure, shortened: as §3

ABUTH [14] = assay: Post-emergence action against ABUTH; format: in vivo, Abutilon theophrasti; details: post-emergence, dosage 80 g/ha, visual assessment about 3 weeks after treatment vs untreated controls
Procedure, shortened: as §3

AMARE [15] = assay: Post-emergence action against AMARE; format: in vivo, Amaranthus retroflexus; details: post-emergence, dosage 80 g/ha, visual assessment about 3 weeks after treatment vs untreated controls
Procedure, shortened: as §3

PHBPU [16] = assay: Post-emergence action against PHBPU; format: in vivo, Pharbitis purpurea; details: post-emergence, dosage 80 g/ha
Procedure, shortened: as §3

POLCO [17] = assay: Post-emergence action against POLCO; format: in vivo, Polygonum convolvulus; details: post-emergence, dosage 80 g/ha
Procedure, shortened: as §3

STEME [18] = assay: Post-emergence action against STEME; format: in vivo, Stellaria media; details: post-emergence, dosage 80 g/ha
Procedure, shortened: as §3

VIOTR [19] = assay: Post-emergence action against VIOTR; format: in vivo, Viola tricolor; details: post-emergence, dosage 80 g/ha
Procedure, shortened: as §3

AVEFA [20] = assay: Pre-emergence action against AVEFA; format: in vivo, Avena fatua; details: dosage 320 g/ha, scored visually after 3 weeks vs untreated controls
Procedure, shortened: as §1

AVEFA [21] = assay: Post-emergence action against AVEFA; format: in vivo, Avena fatua; details: post-emergence, dosage 80 g/ha, visual assessment about 3 weeks after treatment vs untreated controls
Protocol: as §2

MATIN [22] = assay: Post-emergence action against MATIN; format: in vivo, Matricaria inodora; details: post-emergence, dosage 80 g/ha, visual assessment about 3 weeks after treatment vs untreated controls
Procedure, shortened: as §3

VERPE [23] = assay: Post-emergence action against VERPE; format: in vivo, Veronica persica; details: dosage 80 g/ha
Procedure, shortened: as §3

ALOMY [24] = assay: Pre-emergence action against ALOMY; format: in vivo, Alopecurus myosuroides; details: dosage 320 g/ha; pre-emergence; scored visually after 3 weeks vs untreated controls; 100% = plants have died, 0% = like control plants
Procedure, shortened: as §1

PHBPU [25] = assay: Pre-emergence action against PHBPU; format: in vivo, Pharbitis purpurea; details: Dosage 320 g/ha, pre-emergence
Procedure, shortened: as §1

CYPES [26] = assay: Post-emergence action against CYPES; format: in vivo, Cyperus esculentus; details: post-emergence, dosage 80 g/ha, visual assessment about 3 weeks after treatment vs untreated controls
Procedure, shortened: as §3

| SMILES | Pre-emergence action against CYPES (herbicidal activity) (CYPES [1]) [%] | Pre-emergence action against ECHCG (herbicidal activity) (ECHCG [2]) [%] | SETVI (Table B8, pre-emergence herbicidal activity) (SETVI [3]) [%] | Pre-emergence action against ABUTH (herbicidal activity) (ABUTH [4]) [%] | Pre-emergence action against AMARE (herbicidal activity) (AMARE [5]) [%] | Pre-emergence action against MATIN (MATIN [6]) [%] | Pre-emergence action against POLCO (POLCO [7]) [%] | Pre-emergence action against STEME (STEME [8]) [%] | Pre-emergence action against VIOTR (VIOTR [9]) [%] | Pre-emergence action against VERPE (VERPE [10]) [%] | Post-emergence action against ECHCG (herbicidal action in percent) (ECHCG [12]) [%] | Post-emergence action against SETVI (herbicidal action in percent) (SETVI [13]) [%] | Post-emergence action against ABUTH (herbicidal action in percent) (ABUTH [14]) [%] | Post-emergence action against AMARE (herbicidal action in percent) (AMARE [15]) [%] | Post-emergence action against PHBPU (PHBPU [16]) | Post-emergence action against POLCO (POLCO [17]) | Post-emergence action against STEME (STEME [18]) | Post-emergence action against VIOTR (VIOTR [19]) | Pre-emergence action against AVEFA (herbicidal activity) (AVEFA [20]) [%] | Post-emergence action against AVEFA (herbicidal action in percent) (AVEFA [21]) [%] | further results |
| --- | --- | --- | --- | --- | --- | --- | --- | --- | --- | --- | --- | --- | --- | --- | --- | --- | --- | --- | --- | --- | --- |
| CCn1nnnc1NC(=O)c1ccc(C(F)(F)F)c(C(=O)CCl)c1Cl [2-145] | 100 | 90 | 100 | 100 | 100 | 100 | 90 | 100 | 100 | 100 | 100 | 100 | 100 | 100 | 100 | 80 | 100 | 100 | – | – | Post-emergence action against ALOMY (ALOMY [11]): 80% |
| CCCn1nnnc1NC(=O)c1ccc(SC)c(C(=O)C2CC2)c1Cl [3-123] | 80 | 90 | 100 | 100 | 100 | 100 | 80 | 90 | 100 | 100 | 100 | 90 | 80 | 100 | 90 | 90 | 100 | 100 | 100 | 100 | Post-emergence action against MATIN (herbicidal action in percent) (MATIN [22]): 100%; Post-emergence action against VERPE (VERPE [23]): 100 |
| CCCn1nnnc1NC(=O)c1ccc(S(C)(=O)=O)c(C(C)=O)c1C [3-7] | 100 | 100 | 100 | 100 | 100 | 100 | 90 | 90 | 100 | 100 | 100 | 100 | 100 | 100 | 90 | 80 | 100 | 100 | 90 | 100 | Pre-emergence action against ALOMY (herbicidal activity in percent) (ALOMY [24]): 80%; Pre-emergence action against PHBPU (PHBPU [25]): 90%; Post-emergence action against CYPES (herbicidal action in percent) (CYPES [26]): 80%; Post-emergence action against MATIN (herbicidal action in percent) (MATIN [22]): 100%; Post-emergence action against VERPE (VERPE [23]): 100 |
